Consider ten molecules from publication PMC12071598, “Piperazine-Substituted Pyranopyridines Exhibit Antiproliferative Activity and Act as Inhibitors of HBV Virion Production” (International Journal of Molecular Sciences, 2025).

The test system of one data set is hepatitis B virus (HBV). The experiment in a line: microbe, parasite or virus in culture. To be noted: for log reduction at 1 µM / log reduction at 10 µM: Hepatitis B virus, 144 h; for Extracellular HBV DNA (Δlog10): 1 µM, 6 days treatment, conditioned medium (virion production). In kind it is cell-based.
Another data set has as its system A549. The data set is described as follows: Antiproliferative activity, MTT assay, A549. To be noted: Homo sapiens, A549 lung carcinoma, 72 h. The class given is cell-based.
Another data set deals with HeLa. The data set is described as follows: Antiproliferative activity, MTT assay, HeLa. The class given is cell-based. To be noted: Homo sapiens, HeLa cervix carcinoma, 72 h.
Data set [1] has as its system DU145. The experiment in a line: Antiproliferative activity, MTT assay, DU145. As to conditions: Homo sapiens, DU-145, DU145 prostate carcinoma, 72 h. In kind it is cell-based.
For a further data set, the system named is K562. The experiment in a line: Antiproliferative activity, MTT assay, K562. In kind it is cell-based. To be noted: Homo sapiens, K562 chronic myeloid leukemia, 72 h.
The next data set deals with SH-SY5Y. The experiment in a line: Antiproliferative activity, crystal violet staining, SH-SY5Y. The class given is cell-based. To be noted: Homo sapiens, SH-SY5Y neuroblastoma, 72 h.
In a further data set the test system is HepaRG. The experiment in a line: Cytotoxicity towards non-tumor differentiated HepaRG cells, MTT. As to conditions: concentration decreasing number of viable cells by 50%; for IC50: Homo sapiens. In kind it is cell-based, human.
Data set [2] in a line: Cytotoxicity by MTS assay in MDCK cells. In kind it is cell-based. To be noted: dog, read-out: Influenza A Virus CC50. As for the experimental part: Production of influenza A virus (H1N1) stock and its infection of MDCK cells, as well as infection of Vero E6 cells with SARS-CoV-2, were described previously. Cytotoxicity of the compounds towards MDCK and VeroE6 cells was assessed by seeding 18,000 cells/well of […] plates in 0.1 mL DMEM, treating with the compounds for 66 h, and measuring cell viability by MTS assay. As positive controls, oseltamivir and N-hydroxicytidine were used (obtained from Sigma).
The compounds were added at non-toxic concentrations in serum-free DMEM to the respective cells; one hour later, the serial 10-fold dilutions of influenza virus or SARS-CoV-2 were added in serum-free medium, and antiviral activity was determined by the reduction in the infectious titer of the virus by cytopathic action (CPE). Calculation of 50% cytotoxic concentration (CC50) and 50% effective concentration (IC50) was performed by standard methods using Microsoft Excel 5.0 and GraphPad Prism 8 (GraphPad Software Inc., Boston, MA, USA).

The subject of a further data set is SARS-CoV-2. The data set is described as follows: microbe, parasite or virus in culture. In kind it is cell-based.
The next data set deals with PV1. The experiment in a line: microbe, parasite or virus in culture. The class given is cell-based, poliovirus type 1. As to conditions: Enterovirus C, 48 h, read-out: PV1 IC50, µM.
The subject of another data set is NDV. The experiment in a line: microbe, parasite or virus in culture. The class given is cell-based, Newcastle disease virus. To be noted: avian paramyxovirus 1, 48 h, read-out: NDV IC50, µM.
The subject of a further data set is HSV-1. The experiment in a line: microbe, parasite or virus in culture. In kind it is cell-based, herpes simplex virus type 1. As to conditions: Human alphaherpesvirus 1, 48 h, read-out: HSV-1 IC50, µM.
A further data set deals with VV. The experiment in a line: microbe, parasite or virus in culture. In kind it is cell-based. To be noted: Orthopoxvirus vaccinia, 48 h, read-out: VV IC50, µM.
The subject of the next data set is Influenza A virus. The data set is described as follows: microbe, parasite or virus in culture. In kind it is cell-based, influenza A virus (H1N1).
Data set [3] concerns DU145. To be noted: discussed for DU145; cited from earlier work.
Another data set relates to A549 cells. The experiment in a line: Intracellular ROS assay, DCFH2-DA in A549 cells. In kind it is cell-based. As to conditions: A549, 10 µM, 72 h. From the text: As cell death is often triggered by increased production of reactive oxygen species (ROS), the next step was to evaluate if our compounds act as pro-oxidants. ROS production was accessed using cell-permeable redox sensitive DCFH2-DA dye. […] As one of the main sites of ROS production is mitochondria, we also evaluated their membrane potential during treatment with either DO11-46 or DO11-48. […] Lysosome activation often accompany late stages of apoptosis, which is in good accordance with our data on the induction of caspase3/7 activity.
Pro-oxidant activity of the compounds was studied by quantification of ROS production using a cell-permeable fluorogenic probe 2′,7′-dichlorodihydrofluorescein diacetate (DCFH2-DA). A549 cells were seeded on a 48-well plate at a density of 10,000 cells/well. Twenty-four hours later, the compounds were added to 10 µM concentration in quadruplicate, and the cells were kept for 72 h. As a positive control, A549 cells were treated with 1 mM H2O2 for 2 h prior analysis. Then, media were replaced with the fresh FBS-lacking DMEM supplemented with 25 µM DCFH2-DA. After 45 min incubation, the cells were washed 10 times with 500 µL PBS, resuspended in 200 µL PBS and transferred to a black 96-well plate. The fluorescence intensities (FLIs) were measured using CHAMELEON V microplate reader with excitation at 485 nm and emission at 535 nm.

Setting [4] is: read-out: Extracellular HBV DNA (Δlog10).
Where [5] appears, read: read-out: Intracellular Total HBV RNA (Δlog10).
[6] abbreviates: Severe acute respiratory syndrome coronavirus 2, Vero C1008, read-out: SARS-CoV-2 IC50, µM.

Where two headings read alike, the source gives them in different places.

For the molecule `Nc1ccn([C@@H]2CS[C@H](CO)O2)c(=O)n1` [3TC, Lamivudine, reference compound], in the data set with hepatitis B virus (HBV) (setting [4]), the log reduction at 1 µM stood at 0.93 and the log reduction at 10 µM was found to be 1.04. In the data set on hepatitis B virus (HBV) (setting [5]), the log reduction at 1 µM was below 0.5 and the log reduction at 10 µM was below 0.5.

Take `CC1(C)Cc2c(C#N)c(SCC(N)=O)nc(N3CCNCC3)c2CO1` [DO11-37, 2-[(5-Cyano-3,3-dimethyl-8-piperazin-1-yl-3,4-dihydro-1H-pyrano[3,4-c]pyridin-6-yl)thio]acetamide]: the IC50 in the data set on A549 turned out to be 294 ± 35.9 µM; in the data set on HeLa it was 133 ± 38 µM; in the data set with DU145 [1], 225 ± 52.4 µM; with K562, 91.4 ± 29.6 µM; in the data set with SH-SY5Y it was 99.4 ± 21.4 µM; in the data set on HepaRG, 968 ± 87.8 µM. The IC50 is above 200 µM in the data set on SARS-CoV-2 (setting [6]); above 300 µM in the data set with PV1; above 300 µM with NDV; above 300 µM in the data set on HSV-1; above 300 µM with VV. For the same molecule, the “IC50 (µM) HepaRG” value in the data set with HepaRG was “almost non-toxic”. For the same molecule, the CC50 at 66 h in data set [2] came to 1680 µM. In the data set on hepatitis B virus (HBV), the “Extracellular HBV DNA (Δlog10)” value is on record as “significantly reduced levels of virion production”. Further, the results for the log reduction at 1 µM with hepatitis B virus (HBV) (setting [4]) and in the data set on hepatitis B virus (HBV) (setting [5]) were 1.97 ± 0.03 and below 0.5, respectively. For the same molecule, the log reduction at 10 µM was 2.32 ± 0.16 in the data set with hepatitis B virus (HBV) (setting [4]) and below 0.5 in the data set on hepatitis B virus (HBV) (setting [5]).

`CCOC(=O)C1=C[C@@H](OC(CC)CC)[C@H](NC(C)=O)[C@@H](N)C1` [Oseltamivir, reference compound]: the “Influenza A Virus Δlgmax” value in the data set with Influenza A virus is given as 6.0. The IC50 in the data set with Influenza A virus (Influenza A virus, MDCK, read-out: Influenza A Virus IC50, µM) came to 0.02 µM. Also, the CC50 at 66 h in data set [2] was above 10 µM.

For the molecule `CNC(=O)c1cc(Oc2ccc(NC(=O)Nc3ccc(Cl)c(C(F)(F)F)c3)cc2)ccn1` [Sorafenib, reference compound], the IC50 with SH-SY5Y was 40 ± 10 µM; in the data set with HepaRG, above 100 µM.

On to `O=c1nc(NO)ccn1[C@@H]1O[C@H](CO)[C@@H](O)[C@H]1O` [N-HydroxyC, N-hydroxicytidine, reference compound], for which, in the data set on SARS-CoV-2, the “SARS-CoV-2 Δlgmax” value came out at 5.0. Also, the IC50 in the data set with SARS-CoV-2 (read-out: SARS-CoV-2 IC50) turned out to be 0.5 µM.

In the case of `Fc1ccc(C(c2ccc(F)cc2)N2CCNCC2)cc1` [1-bis(4-fluorophenyl)methylpiperazine], in the data set with DU145 [3], the GI50 is 1.8 µM.

Turning to `O=c1[nH]cc(F)c(=O)[nH]1` [5-Fluorouracil, reference compound], the IC50 with HeLa worked out at 1.2 ± 0.3 µM; with K562, 1.3 ± 0.3 µM; with SH-SY5Y it was 1.5 ± 0.2 µM.

For `CC(=O)c1ccc(NC(=O)CSc2nc(N3CCNCC3)c3c(c2C#N)CC(C)(C)OC3)cc1` [DO11-50, N-(4-acetylphenyl)-2-[(5-cyano-3,3-dimethyl-8-piperazin-1-yl-3,4-dihydro-1H-pyrano[3,4-c]pyridin-6-yl)thio]acetamide], the IC50 stood at 45.8 ± 12.6 µM with A549; 74.5 ± 3.5 µM with HeLa; 26.7 ± 8.4 µM with DU145 [1]; 45.6 ± 20 µM in the data set with K562; 13.2 ± 4.3 µM in the data set on SH-SY5Y; 42.4 ± 8.3 µM in the data set on HepaRG. Also, the IC50 in the data set on SARS-CoV-2 (setting [6]) was above 15 µM; in the data set with PV1 it was above 5 µM; with NDV, above 5 µM; in the data set on HSV-1, above 5 µM; in the data set with VV, above 5 µM. Also, the “Influenza A Virus Δlgmax” value in the data set with Influenza A virus was 0. The CC50 at 66 h in [2] worked out at 1270 µM. In addition, in the data set on SARS-CoV-2, the “SARS-CoV-2 Δlgmax” value is 0. The log reduction at 1 µM in the data set on hepatitis B virus (HBV) (setting [4]) and with hepatitis B virus (HBV) (setting [5]) was below 0.5 in each case. The log reduction at 10 µM in the data set on hepatitis B virus (HBV) (setting [4]) and in the data set on hepatitis B virus (HBV) (setting [5]) was below 0.5 throughout.

As for `CC1(C)Cc2c(C#N)c(SCc3ccccc3Cl)nc(N3CCNCC3)c2CO1` [DO11-42, 6-[(2-Chlorobenzyl)thio]-3,3-dimethyl-8-piperazin-1-yl-3,4-dihydro-1H-pyrano[3,4-c]pyridine-5-carbonitrile], the IC50 amounted to 7 ± 1.9 µM with A549; 1.9 ± 0.3 µM with HeLa; 1.3 ± 0.2 µM in the data set with DU145 [1]; 1.5 ± 0.8 µM with K562; 4.5 ± 1.8 µM in the data set on SH-SY5Y; 24.5 ± 2.8 µM in the data set on HepaRG. Further, the IC50 was above 15 µM in the data set on SARS-CoV-2 (setting [6]); above 7.5 µM with PV1; above 7.5 µM in the data set on NDV; above 7.5 µM with HSV-1; above 7.5 µM with VV. Further, the “Influenza A Virus Δlgmax” value in the data set with Influenza A virus stood at 0.5. In data set [2], the half-maximal cytotoxic concentration (CC50) at 66 h was found to be 440 µM. The “SARS-CoV-2 Δlgmax” value in the data set with SARS-CoV-2 is listed as 0. For the same molecule, in the data set with hepatitis B virus (HBV), the “Extracellular HBV DNA (Δlog10)” value was “significantly reduced levels of virion production”. The log reduction at 1 µM in the data set with hepatitis B virus (HBV) (setting [4]) is 2.52 ± 0.36; in the data set with hepatitis B virus (HBV) (setting [5]), below 0.5. The figures for the log reduction at 10 µM with hepatitis B virus (HBV) (setting [4]) and with hepatitis B virus (HBV) (setting [5]) were 2.31 ± 0.29 and 0.53 ± 0.31, respectively. Moreover, the ROS generation entry in the data set on A549 cells is listed as “significantly increased ROS generation”.

As to `FC(F)(F)c1ccc(CN2CCNCC2)cc1` [[4-(trifluoromethyl)benzyl]piperazine], the GI50 with DU145 [3] was 1.6 µM.
